According to publication PMC12036875, “Mitochondria-targeting natural product rhein conjugated with dichloroacetate as the dual inhibitor of glycolysis and oxidative phosphorylation to off energize cancer cells and induce ROS storm” (Theranostics, 2025):

Key:
[1] = Stability in simulated gastrointestinal environment (HPLC); type: physicochemical; settings: 37°C, within 2 h
Experimental: The proven oral administration experiences of rhein and DCA validated the feasibility and potential of our research on the oral administration of their derivative, Rhein-DCA [34], [35]. We first evaluated the stability of Rhein-DCA by simulating gastric acid (pH 1.5) and intestinal (pH 6.8) conditions in vitro with HPLC. The stability of the Rhein-DCA was as high as 85% within 2 h, indicating the stable of Rhein-DCA in gastrointestinal environment, and it was capable of being efficiently absorbed via the gastrointestinal tract (Figure S21).
Prepare phosphate buffer solutions at pH 1.5 (gastric simulation) and pH 6.8 (intestinal simulation). Rhein-DCA was added to the buffer and incubated at 37°C. Samples were collected at 0, 2, 4, and 6 h for HPLC analysis. Calculate stability (%) = (Ct / C0) × 100, where Ct and C0 are concentrations at time t h and 0 h, respectively.

[2] = test system: mitochondria of 4T1 cells; test: Cell uptake and organelle localization (CLSM); type: cell-based, Mouse; settings: 24 h
Source text: In order to evaluate the positive effect of the conjugation of rhein and DCA on anti-cancer aspect, cellular uptake of Rhein-DCA conjugate in 4T1 cells was first examined by confocal laser scanning microscope (CLSM). Based on the fluorescence properties of Rhein-DCA conjugate, green fluorescence signal indicated its distribution within the cells. […] The green fluorescence of rhein was highly overlapped with the red fluorescence of mitochondria (Mito tracker red) and merged into yellow fluorescence in rhein and Rhein-DCA groups.
4T1 cells were seeded in confocal dishes at a density of 10 × 10^4 cells per dish and cultured in the incubator for 24 h. And the cells were further treated with Rhein-DCA conjugate at a concentration of 6.25 μM for 0, 2, 6, 12 or 24 h, respectively. Thereafter, the cells were washed twice with PBS and stained with Hoechst 33342 (10 μg/mL) for 15 min in the dark at room temperature, followed by another two washes with PBS. Finally, the fluorescence intensity of cells was monitored with confocal microscope with excitation wavelengths (Ex) of 488 nm, emission wavelengths (Em) of 525 ± 25 nm, and Ex of 405 nm, Em of 447 ± 30 nm, respectively. […]

mPTP in 4T1 cells = test: Mitochondrial permeability transition pore opening assay (Calcein AM); type: cell-based, Mouse; settings: 6.25 μM, 24 h
Source text: On the other hand, rhein could also disturb mitochondria, the camp of OXPHOS, to further prevent cancer cells from obtaining ATP by inducing pathological opening of mPTP [30]. We first detected mPTP on 4T1 cancer cells treated with indicated drugs according to the mPTP assay kit. The green fluorescence of Calcein AM in mitochondria would vanish when the quencher entered mitochondria through the opened mPTP channel. […] The sustained opening of mPTP along with the loss of Δψm. Thus, we further examined the Δψm of 4T1 cancer cells with JC-1 fluorescence dyes and tetramethylrhodamine, ethyl ester (TMRE) probe. The JC-1 dyes underwent a transition from aggregated red fluorescence to monomeric green fluorescence with mitochondrial depolarization in cells, and the increase of green/red fluorescence intensity ratio of JC-1 dyes indicated mitochondrial depolarization.
The opening status of the mPTP in 4T1 cells were tested with fluorescent probe Calcein AM. Briefly, 4T1 cells were seeded into 6-wells plates at a density of 10 × 10^4 cells per well and treated with various drugs at 6.25 μM for 24 h. After being washed twice with PBS, the cells were stained with Calcein AM staining solution (1 ×) and CoCl2 fluorescence quenching solution (1 ×) for 45 min at 37 °C in the dark. Next, they were further cultured with fresh medium at 37 °C for another 30 min in the dark. […]

4T1 cells = test: Intracellular and extracellular lactate determination; type: cell-based, Mouse; settings: 6.25 μM, 24 h
Experimental: Next, the end product of glycolysis, lactate, was analyzed in 4T1 cells to further confirm the efficacy of the Rhein-DCA conjugate in blocking glycolytic metabolism. […] Lactate will be released from cells and condense in the TME due to the sustained aerobic glycolysis. To determine whether the decline in intracellular lactate level was caused by an increased extracellular secretion or a disconnect in glycolysis pathway, we further detected the lactate content in the culture medium (Figure 2E). The changes in extracellular lactate level were consistent with those observed intracellularly across the tested groups.
4T1 cells were seeded into 6-well plates at a density of 10 × 10^4 cells per well and cultured for 24 h. Cells were exposed to PBS, rhein, DCA, R + D and Rhein-DCA conjugate at a concentration of 6.25 μM for 24 h. (1) Medium: The medium from different groups was subjected to centrifugation at 9391 G for 10 min, 100 μL of supernatant was obtained, and 1 mL of extraction solution I was added. (2) Cells: After being washed twice with PBS, cells were harvested and suspended in extraction solution I (1 mL) for further lysis with sonication in ice bath (power 300 W, the duration of sonication is 3 s, the interval duration of 7 s, total sonication time of 3 min). […] Finally, the absorption value of each sample was detected with microplate reader at 570 nm.

SMILES: O=C(OCCOC(=O)C(Cl)Cl)c1cc(O)c2c(c1)C(=O)c1cccc(O)c1C2=O [Rhein-DCA]
- stability in simulated gastric acid (pH 1.5) and intestinal (pH 6.8) conditions [1]: 85%
- co-localization with lysosomes (Lyso tracker red) and endoplasmic reticulum (ER tracker red) [2]: almost did not co-localize
- mPTP opening (Calcein AM green fluorescence) (mPTP in 4T1 cells): faintest green fluorescence
- intracellular lactate content (4T1 cells): noticeable descent
